Counter-ions that a name gives are not always drawn. Like-named read-outs stand apart in the source and are kept apart here.
Experiments:
PKC α = target: T1, PKC α (Homo sapiens, UniProt P17252); test: PKC enzyme assay (BIOTRAK Protein kinase C enzyme assay system, 32P-ATP phosphorylation of peptide […]); assay type: biochemical
T1 construct: purchased CALBIOCHEM
Method: (§1) As the reagent for enzyme assay, BIOTRAK Protein kinase C enzyme assay system (hereinafter the system, Amersham), and as the PKC enzyme standard product, Protein Kinase C, Human Recombinant (CALBIOCHEM) were purchased and used in the assay. A substrate mixture was prepared by mixing calcium buffer (12 mM calcium acetate, 50 mM Tris/HCl pH 7.5, 0.05% (w/v) sodium azide), Lipid (0.3 mg/ml La-phosphatidyl-L-serine, […] phorbol 12-myristate 13-acetate, 50 mM Tris/HCl pH 7.5, 0.05% (w/v) sodium azide), peptide buffer (900 µM peptide […]), 50 mM Tris/HCl pH 7.5, 0.05% (w/v) sodium azide), DTT buffer (30 mM dithiothreitol, 50 mM Tris/HCl pH 7.5, 0.05% (w/v) sodium azide), and magnesium ATP buffer (1.2 mM ATP, […] pH 7.4, 72 mM magnesium chloride) all attached to the system in a ratio of 1:1:1:1:0.8 and adding [ y -32P]ATP (Amersham, cat. […] The PKC enzyme standard product was diluted with an assay buffer (10 mM Hepes pH 7.4, 0.01% Triton X-100) to a concentration of 400 ng/ml and used as the enzyme solution. The substrate mixture and a test substance (diluted to the final concentration of 1 nM-10 µM with dimethyl sulfoxide (DMSO)) were mixed at a ratio of 20:1. The enzyme solution was added in the amount equivalent to the substrate mixture and mixed, which was followed by incubation at 37°C for 15 minutes. The reaction terminator (300 mM orthophosphoric acid containing carmosine red) attached to the system was added in the amount equivalent to the substrate mixture to end the reaction, and the reaction mixture was spotted on a phosphocellulose paper (Whatman, P-81), washed twice with 75 mM orthophosphoric acid and assayed for radioactivity by BAS2000 (Fuji film).
(§2) The ratio of the radioactivity of the addition of the test substance to the addition of DMSO was determined, and IC50 was calculated from inhibition at each concentration.

PKC β II = target: T2, PKC β II (Homo sapiens, UniProt P05771); test: as above; assay type: biochemical; settings: for Ratio α/β: IC50 PKC α / IC50 PKC β II
T2 construct: purchased CALBIOCHEM
Source text: The method for determining the PKC inhibitory activity of the compound of the present invention is explained in the following. Inasmuch as PKCβII is present in greater number in intravascular cells than PKCβI, PKCβII was mainly used here to test the enzyme activity.
as §1, §2

[1] = Protein Kinase C, Human Recombinant, test substance 1 nM-10 µM, 37°C, 15 minutes, read-out: Inhibition of PKC activity IC50 PKC α
[2] = Protein Kinase C, Human Recombinant, test substance 1 nM-10 µM, 37°C, 15 minutes, read-out: Inhibition of PKC activity IC50 PKC β II

T2 sequence (P05771 other isoform, or with tags, fused parts or gaps): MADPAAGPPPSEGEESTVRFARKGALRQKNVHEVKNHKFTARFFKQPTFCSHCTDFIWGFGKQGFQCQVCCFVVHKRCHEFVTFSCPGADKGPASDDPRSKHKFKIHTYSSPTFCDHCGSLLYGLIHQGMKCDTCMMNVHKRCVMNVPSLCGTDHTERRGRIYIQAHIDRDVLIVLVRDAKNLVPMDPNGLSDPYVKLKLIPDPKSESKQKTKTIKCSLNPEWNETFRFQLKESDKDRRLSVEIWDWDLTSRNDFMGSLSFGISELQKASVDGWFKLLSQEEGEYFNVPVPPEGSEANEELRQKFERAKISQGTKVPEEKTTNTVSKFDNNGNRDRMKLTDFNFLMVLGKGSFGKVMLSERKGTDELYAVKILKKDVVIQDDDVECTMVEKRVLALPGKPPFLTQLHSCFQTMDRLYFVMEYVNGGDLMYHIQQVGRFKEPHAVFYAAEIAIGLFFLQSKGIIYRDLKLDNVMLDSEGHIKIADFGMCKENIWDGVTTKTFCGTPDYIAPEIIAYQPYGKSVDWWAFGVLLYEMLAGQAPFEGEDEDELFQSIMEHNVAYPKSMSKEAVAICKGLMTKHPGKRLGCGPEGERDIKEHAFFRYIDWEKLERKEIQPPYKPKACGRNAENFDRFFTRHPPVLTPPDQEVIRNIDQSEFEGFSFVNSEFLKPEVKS

SMILES	IC50 (PKC α; [1]) [µM]	IC50 (PKC β II; [2]) [µM]	Ratio α/β (PKC β II)	IC50 (PKC α) [µM]	IC50 (PKC β II) [µM]
O=C1NC(=O)C(c2cn(CCCn3ccnc3)c3ccccc23)=C1Nc1ccccc1 [Example 2-36, 3-[1-(3-imidazol-1-ylpropyl)-1H-indol-3-yl]-4-(phenylamino)-1H-pyrrole-2,5-dione]	0.331	0.005	–	–	–
O=C1NC(=O)C(c2cn(CCCn3cccn3)c3ccccc23)=C1Nc1ccccc1 [Example 2-37, 3-(phenylamino)-4-[1-(3-pyrazol-1-ylpropyl)-1H-indol-3-yl]-1H-pyrrole-2,5-dione]	> 1	0.06	17	–	–
O=C1NC(=O)C(c2cn(CCCn3cncn3)c3ccccc23)=C1Nc1ccccc1 [Example 2-38, 3-(phenylamino)-4-[1-{3-(1,2,4-triazol-1-yl)propyl}-1H-indol-3-yl]-1H-pyrrole-2,5-dione]	> 1	0.04	25	–	–
O=C1NC(=O)C(c2cn(CCCn3ccnc3)c3ccccc23)=C1Nc1cccc(Cl)c1 [Example 2-39, 3-[(3-chlorophenyl)amino]-4-[1-(3-imidazol-1-ylpropyl)-1H-indol-3-yl]-1H-pyrrole-2,5-dione]	0.354	0.021	17	–	–
O=C1NC(=O)C(c2cn(CCCCn3ccnc3)c3ccccc23)=C1Nc1cccc(Cl)c1 [Example 2-40, 3-[(3-chlorophenyl)amino]-4-[1-(4-imidazol-1-ylbutyl)-1H-indol-3-yl]-1H-pyrrole-2,5-dione]	0.77	0.019	41	–	–
O=C1NC(=O)C(c2cn(CCCCCn3ccnc3)c3ccccc23)=C1Nc1ccccc1 [Example 2-41, 3-[1-(5-imidazol-1-ylpentyl)-1H-indol-3-yl]-4-(phenylamino)-1H-pyrrole-2,5-dione]	2.74	0.062	44	–	–
Cc1nccn1CCCn1cc(C2=C(Nc3cccc(Cl)c3)C(=O)NC2=O)c2ccccc21 [Example 2-42, 3-[(3-chlorophenyl)amino]-4-[1-{3-(2-methylimidazol-1-yl)propyl}-1H-indol-3-yl]-1H-pyrrole-2,5-dione]	0.452	0.01	45	–	–
N=C(N)SCCCn1cc(C2=C(Nc3ccccc3)C(=O)NC2=O)c2ccccc21 [Example 2-43, 3-[1-(3-amidinothiopropyl)-1H-indol-3-yl]-4-(phenylamino)-1H-pyrrole-2,5-dione hydrobromide]	0.027	0.002	–	–	–
O=C1NC(=O)C(c2cn(CC(O)CO)c3ccccc23)=C1Nc1ccccc1 (stereo not drawn) [Example 2-44, 3-[1-(2,3-dihydroxypropyl)-1H-indol-3-yl]-4-(phenylamino)-1H-pyrrole-2,5-dione]	8.16	0.261	31	–	–
O=C1NC(=O)C(c2cn(CCN3CCC(O)CC3)c3ccccc23)=C1Nc1ccccc1 [Example 2-47, 3-[1-{2-(4-hydroxypiperidino)ethyl}-1H-indol-3-yl]-4-(phenylamino)-1H-pyrrole-2,5-dione]	2.34	0.066	36	–	–
O=C1NC(=O)C(c2cn(CCCN3CCC(Cc4ccccc4)CC3)c3ccccc23)=C1Nc1ccccc1 [Example 2-48, 3-[1-{3-(4-benzylpiperidino)propyl}-1H-indol-3-yl]-4-(phenylamino)-1H-pyrrole-2,5-dione]	1.39	0.018	77	–	–
O=C1NC(=O)C(c2cn(CCCN3CCC(N4CCCC4)CC3)c3ccccc23)=C1Nc1ccccc1 [Example 2-49, 3-[1-(3-(4-pyrrolidinylpiperidino)propyl}-1H-indol-3-yl]-4-(phenylamino)-1H-pyrrole-2,5-dione]	–	–	–	0.723	0.008
O=C1NC(=O)C(c2cn(CCCN3CCC(CO)CC3)c3ccccc23)=C1Nc1ccccc1 [Example 2-50, 3-[1-{3-[4-(hydroxymethyl)piperidino]propyl}-1H-indol-3-yl]-4-(phenylamino)-1H-pyrrole-2,5-dione]	0.886	0.019	47	–	–
CC(C)(C)OC(=O)C1CCN(CCCn2cc(C3=C(Nc4ccccc4)C(=O)NC3=O)c3ccccc32)CC1 [Example 2-51, 3-[1-{3-[4-(tert-butoxycarbonyl)piperidino]propyl}-1H-indol-3-yl]-4-(phenylamino)-1H-pyrrole-2,5-dione]	1.02	0.027	38	–	–
Cc1c(C2=C(Nc3ccccc3)C(=O)NC2=O)c2ccccc2n1CCCN1CCCCC1 [Example 2-53, 3-[2-methyl-1-(3-piperidinopropyl)-1H-indol-3-yl]-4-(phenylamino)-1H-pyrrole-2,5-dione]	> 10	0.098	102	–	–
Cc1c(C2=C(Nc3ccccc3)C(=O)NC2=O)c2ccccc2n1CCCN(C)C [Example 2-54, 3-[1-(3-dimethylaminopropyl)-2-methyl-1H-indol-3-yl]-4-(phenylamino)-1H-pyrrole-2,5-dione]	6.67	0.061	109	–	–
Cc1c(C2=C(Nc3ccccc3)C(=O)NC2=O)c2ccccc2n1CCCN1CCCC1 [Example 2-55, 3-[2-methyl-1-(3-pyrrolidin-1-ylpropyl)-1H-indol-3-yl]-4-(phenylamino)-1H-pyrrole-2,5-dione]	> 10	0.096	104	–	–
CCN(C)CCCn1c(C)c(C2=C(Nc3ccccc3)C(=O)NC2=O)c2ccccc21 [Example 2-56, 3-[1-{3-(ethylmethylamino)propyl}-2-methyl-1H-indol-3-yl]-4-(phenylamino)-1H-pyrrole-2,5-dione]	5.49	0.084	65	–	–
Cc1cn(CCCn2cc(C3=C(Nc4cccc(Cl)c4)C(=O)NC3=O)c3ccccc32)cn1 [Example 2-58, 3-[(3-chlorophenyl)amino]-4-[1-{3-(4-methyl-imidazol-1-yl)propyl}-1H-indol-3-yl]-1H-pyrrole-2,5-dione]	0.842	0.018	47	–	–
Cc1cncn1CCCn1cc(C2=C(Nc3cccc(Cl)c3)C(=O)NC2=O)c2ccccc21 [Example 2-59, 3-[(3-chlorophenyl)amino]-4-[1-{3-(5-methyl-imidazol-1-yl)propyl}-1H-indol-3-yl]-1H-pyrrole-2,5-dione]	0.356	0.008	45	–	–
Cc1nccn1CCCn1cc(C2=C(Nc3ccccc3)C(=O)NC2=O)c2ccccc21 [Example 2-61, 3-[1-{3-(2-methylimidazol-1-yl)propyl}-1H-indol-3-yl]-4-(phenylamino)-1H-pyrrole-2,5-dione]	0.401	0.009	45	–	–
O=C1NC(=O)C(c2cn(CCn3ccnc3)c3ccccc23)=C1Nc1ccccc1 [Example 2-62, 3-[1-(2-imidazol-1-ylethyl)-1H-indol-3-yl]-4-(phenylamino)-1H-pyrrole-2,5-dione]	4.43	0.081	55	–	–
Cc1nccn1CCn1cc(C2=C(Nc3ccccc3)C(=O)NC2=O)c2ccccc21 [Example 2-63, 3-[1-{2-(2-methyl-imidazol-1-yl)ethyl}-1H-indol-3-yl]-4-(phenylamino)-1H-pyrrole-2,5-dione]	7.12	0.247	29	–	–
O=C1NC(=O)C(c2cn(CCCn3ccnc3)c3ccccc23)=C1Nc1ccc(Cl)cc1 [Example 2-64, 3-[(4-chlorophenyl)amino]-4-[1-(3-imidazol-1-ylpropyl)-1H-indol-3-yl]-1H-pyrrole-2,5-dione]	0.739	0.02	37	–	–
COc1ccc(NC2=C(c3cn(CCCn4ccnc4)c4ccccc34)C(=O)NC2=O)cc1 [Example 2-65, 3-[1-(3-imidazol-1-ylpropyl)-1H-indol-3-yl]-4-[(4-metholyphenyl)amino]-1H-pyrrole-2,5-dione]	0.473	0.01	47	–	–
O=C1NC(=O)C(c2cn(CCCn3ccnc3)c3ccccc23)=C1Nc1ccc(Br)cc1 [Example 2-66, 3-[(4-bromophenyl)amino]-4-[1-(3-imidazol-1-ylpropyl)-1H-indol-3-yl]-1H-pyrrole-2,5-dione]	0.908	0.027	34	–	–

Source: EP1120414A1, “DISUBSTITUTED MALEIMIDE COMPOUNDS AND MEDICINAL UTILIZATION THEREOF” (Japan Tobacco Inc., priority 1998, dated 2000)
